Reference: US20230331672A1, “6-METHOXY-2-PHENETHYL ISOINDOLINE-1-ONE DERIVATIVE AND COMPOSITION FOR TREATING NEUROLOGICAL DISORDERS, COMPRISING SAME” (CNG BIO CO., LTD., priority 2020, published 2023)

Legend:
[1] = test system: NO production in BV2 cells (microglia); test: NO production in LPS-stimulated BV2 cells (Griess reaction), antineuritic activity; type: cell-based; settings: 10 μM, 100 ng/ml LPS for 24 hours, nitrite by Griess reaction, FIG. 26
Protocol: BV2 cells (microglia) were dispensed in DMEM culture solution at a concentration of 6×10^4 cells/well in a 96 well plate, and then treated with the compounds of the present invention at a concentration of 10 μM, and incubated for 24 hours. After 24 hours, each sample was treated with a concentration of 10 μM, reacted for 1 hour, and then stimulated with 100 ng/ml of LPS for 24 hours. The production of nitrite, a soluble oxidation product of NO (nitric oxide), was measured in the culture medium through the Griess reaction.

[2] = test system: nerve growth factor (NGF) in C6 glioma cells; test: Ability to promote increase of nerve growth factor (NGF) produced in cell medium, ELISA; type: cell-based, Rat; settings: 10 μM, 24 hours, FIG. 22
Protocol: Rat astrocyte-derived C6 glioma cells were dispensed in DMEM culture solution at a concentration of 1×10^5 cells/well in a 24 well plate and stabilized overnight, and then treated with the compounds of the present invention at a concentration of 10 μM, and reacted in a 37° C. incubator for 24 hours. The treated medium was collected and centrifuged, and then absorbance was measured using an enzyme linked immunoassay kit (ELISA kit).

SMILES | NO production compared to untreated control group [1] | nerve growth factor produced in the cell medium [2]
COc1cc2c(c3c1CCO3)CN(CCc1ccccc1)C2=O [Formula 19, 4-methoxy-7-phenethyl-7,8-dihydro-2H-furo[2,3-e]isoindole-6(3H)-1] | significantly reduced | 
COc1cc2c(c(O)c1Br)CN(CCc1ccc(F)cc1)C2=O [Formula 1, 5-bromo-2-(4-fluorophenethyl)-4-hydroxy-6-methoxyisoindolin-1-one] |  | significantly excellent
C=Cc1c(OC)cc2c(c1O)CN(CCc1ccc(C(F)(F)F)cc1)C2=O [Formula 20, 4-hydroxy-6-methoxy-2-(4-(trifluoromethyl)phenethyl)-5-vinylisoindolin-1-one] |  | significantly excellent
COc1cc2c(c(O)c1CCCO)CN(CCc1ccccc1)C2=O [Formula 17, 4-hydroxy-5-(3-hydroxypropyl)-6-methoxy-2-phenethyl isoindolin-1-one] | significantly reduced | 
COc1cc2c(c(O)c1Br)CN(CCc1ccc(C(F)(F)F)cc1)C2=O [Formula 6, 5-bromo-4-hydroxy-6-methoxy-2-(4-(trifluoromethyl)phenethyl)isoindolin-1-one] |  | significantly excellent
C=Cc1c(OC)cc2c(c1O)CN(CCc1ccc(OC)cc1)C2=O [Formula 21] | significantly reduced | 
COc1ccc(CCN2Cc3c(cc(OC)c(CCO)c3O)C2=O)cc1 [Formula 15, 4-hydroxy-5-(2-hydroxyethyl)-6-methoxy-2-(4-methoxyphenethyl)isoindolin-1-one] | significantly reduced | 
COCOc1c(Br)c(OC)cc2c1CN(CCc1ccc(OC)cc1)C2=O [Formula 12, 5-bromo-6-methoxy-4-(methoxymethoxy)-2-(4-methoxyphenethyl)isoindolin-1-one] | significantly reduced | 
C=Cc1c(OC)cc2c(c1OCOC)CN(CCc1ccc(OC)cc1)C2=O [Formula 13, 6-methoxy-4-(methoxymethoxy)-2-(4-methoxyphenethyl)-5-vinylisoindolin-1-one] | significantly reduced | significantly excellent
